Laboratory results reported in patent publication US20220211735A1, “MEDICAMENT AND COMBINATION PRODUCT USED FOR PREVENTING, ALLEVIATING AND/OR TREATING FIBROSIS, AND USE THEREOF” (priority 2019, published 2022).

Assays:
[1] = test system: type I collagen α1 promoter COL1A1P; assay: COL1A1 promoter-luciferase reporter gene activity in LX2-COL cells; type: cell-based, human; conditions: 24 hours
Method: The constructed monoclonal cells LX2-COL stably expressing the type I collagen al promoter COL1A1P were spread on a 96-well plate with 2×10^4 cells per well. After the cell confluence is about 90%, different concentrations of medicament C (using Carrimycin or Isovalerylspiramycin I) were added, and each group of experiments has 4 replicate holes. Follow the instructions of Bright-Glo™ Luciferase Assay System, the medium in wells were removed after 24 hours, and 50 μl/well of any medium was added to each well. 50 μl of luciferase substrate was added to each well, and detection was performed after 2 min.

[2] = test system: COL1A1, TGFB1, ACTA2, MMP2 mRNA in skin fibroblasts CCC-ESF-1; type: cell-based; conditions: CCC-ESF-1, 20 and 40 μmol/L, TGF-β1 5 ng/ml, 24 hours
Method: Method for TGFβ1 inducing skin fibroblasts CCC-ESF-1 and administrating Carrimycin and Isovalerylspiramycin I comprises: CCC-ESF-1 was cultured in DMEM, High Glucose, GlutaMAX™ (Gibco 10566016) culture medium containing 10% fetal bovine serum, mixture of 1% penicillin and 1% streptomycin at 37 DEG C and 5% CO2, and was plated in a 6-well according to 3×10^5 cells per well. After culturing for 24 hours, the original culture medium in the 6-well plate was removed by a vacuum pump, and DMEM culture medium without 10% fetal bovine serum was added to be starvation culture for 24 hours. And then TGF-β1 (5 ng/ml) induction was added, and at the same time different concentration gradients of Carrimycin and Isovalerylspiramycin I were added. The concentrations were 20 μmol/L and 40 μmol/L. The following groups were set, control group (without adding TGF-β1 induction), TGF-β1 induction group (only TGF-β1 induction is added) and TGF-β1 induction administration group (both adding TGF-β1 induction and treating with Carrimycin or Isovalerylspiramycin I).
After culturing for 24 hours, the culture medium was discarded, and the Total RNA of […] were extracted according to the operation steps of the TRIzol instructions. According to the operation steps of the instructions of Roche Transcriptor First Strand cDNA Synthesis Kit, Total RNA of LX-2 was reversely transcribed into cDNA. […]

[3] = test system: COL1A1, TGFβ1, α-smooth muscle actin protein in LX-2 cells; assay: Western Blot of main fibrosis markers in LX-2 cells induced by TGFβ1; type: cell-based, human; conditions: 20 μmol/L, TGF-β1 2 ng/ml, 24 hours
Method: (§1) TGFβ1 induced LX-2 cells and medicament C (using Climycin (HB) or Isovalerylspiramycin I (HY)) administration treatment: LX-2 cells were cultured in DMEM, High Glucose, GlutaMAX™ (Gibco10566016) medium containing 10% fetal bovine serum and mixture of 1% […] and 1% penicillin at 37 DEG C and 5% CO2. 1×10^5 cells per well were plated on a 6-well plate. After 24 hours of culture, the original medium in the 6-well plate was removed by a vacuum pump and added with DMEM medium without 10% fetal bovine serum. After starvation for 24 hours, TGF-β1 (2 ng/ml) was added to induce cell, and different concentration gradients of Carrimycin or Isovalerylspiramycin I were added at the same time, the concentrations were 10 μmol/L and 20 μmol/L respectively. A control group (without adding TGF-β1 induction), TGF-β1 induction group (only TGF-β1 induction) and TGF-β1 induction administration group (both TGF-β1 induction and medicament C treatment) were set.
After the cells were induced by TGFβ1 and continued to be cultured for 24 hours, 1 ml of Ripa lysis solution (containing 1% PMSF) was added to each well of the 6-well plate to extract the protein. And the protein concentration was determined by the BCA method. The sample was loaded at 25 μg/20 μl per well. […]

[4] = test system: COL1A1, TGFB1, ACTA2 mRNA in LX-2 cells; assay: Real-time PCR of main fibrosis markers in LX-2 cells induced by TGFβ1; type: cell-based, human; conditions: TGF-β1 2 ng/ml, 24 hours
Method: as §1
After culturing for 24 hours, the medium was discarded, and the total RNA of LX-2 cells were extracted according to the TRIzol instructions. Following the instructions of Roche Transcriptor First Strand cDNA Synthesis Kit, the LX-2 total RNA were to reverse transcribed into cDNA. […]

[5] = test system: COL1A1, TGFB1, ACTA2, MMP2 mRNA in lung fibroblasts MRC-5; assay: Real-time PCR of main fibrosis markers in lung fibroblasts MRC-5 induced by TGFβ1; type: cell-based; conditions: TGF-β1 3 ng/ml, 24 hours
Method: Method for TGFβ1 inducing lung fibroblasts MRC-5 and administrating Carrimycin or Isovalerylspiramycin I comprises: MRC-5 was cultured in a MEM (Gibco 11095-080) culture medium containing 10% fetal bovine serum, a mixture of 1% penicillin and 1% streptomycin and 1% non-essential amino acids at 37 DEG C and 5% CO2, and was plated in a 6-well according to 3×10^5 cells per well. After culturing for 24 hours, the original culture medium in the 6-well plate was removed by a vacuum pump, and MEM culture medium without 10% fetal bovine serum was added to be starvation culture for 24 hours. And then TGF-β1 (3 ng/ml) induction was added, and at the same time different concentration gradients of Carrimycin and Isovalerylspiramycin I were added. The concentrations were 10 μmol/L, 20 μmol/L, 40 μmol/L. The following groups were set, control group (without adding TGF-β1 induction), TGF-β1 induction group (only TGF-β1 induction is added) and TGF-β1 induction administration group (both adding TGF-β1 induction and treating with Carrimycin or Isovalerylspiramycin I).
After culturing for 24 hours, the culture medium was discarded, and the Total RNA of MRC-5 cells were extracted according to the operation steps of the TRIzol instructions. According to the operation steps of the instructions of Roche Transcriptor First Strand cDNA Synthesis Kit, Total RNA of […] was reversely transcribed into cDNA. The cDNA, sterile water, Roche FastStart Universal Probe Master (Rox) and ABI TaqMan probes (GAPDH, COL1A1, TGFB1, ACTA2, MMP2) were prepared into a 20 μl reaction system, and the ABI 7500 Fast Real-time PCR System was used for detection. GAPDH was used as an internal control to analyze the results.

[6] = in vivo; cited from earlier work

Compound | luciferase luminescence (COL1A1 promoter activity) ([1]; 40 μM) | inhibitory effect on the activity of the COL1A1 promoter ([1]; LX2-COL cells, luciferase) | inhibition of COL1A1, TGFB1, ACTA2, and MMP2 (mRNA) [2] | expression of marker proteins COL1A1, TGFβ1, α-smooth muscle actin [3] | inhibitory effect on COL1A1, TGFB1, and ACTA2 at the mRNA level ([4]; 20 μmol/L) | expression of COL1A1, TGFB1, and ACTA2 (mRNA) ([4]; with the increase of the doses (10 and 20 μmol/L)) | effect of inhibiting COL1A1, TGFB1, and ACTA2 at the mRNA level ([5]; MRC-5, 40 μmol/L) | effect of inhibiting COL1A1 at the mRNA level ([5]; MRC-5, 40 μmol/L) | expression of COL1A1 (mRNA) ([5]; MRC-5, with the increase of the dose (10, 20, 40 μmol/L)) | T1/2β [6]
CO[C@@H]1[C@@H](O[C@@H]2O[C@H](C)[C@@H](O[C@H]3C[C@@](C)(O)[C@@H](OC(=O)CC(C)C)[C@H](C)O3)[C@H](N(C)C)[C@H]2O)[C@@H](CC=O)C[C@@H](C)[C@@H](O[C@H]2CC[C@H](N(C)C)[C@@H](C)O2)/C=C/C=C/C[C@@H](C)OC(=O)C[C@H]1O [Isovalerylspiramycin I] | decreased most significantly | significant inhibitory effect | significantly inhibit | significantly inhibited | best inhibitory effect | decreased | the best | the best | decreases | 
Carrimycin |  |  |  |  |  |  |  |  |  | 23 to 27 h
